Consider 78 compounds from the METLIN SMRT retention time set (Domingo-Almenara et al. 2019).

This data set in a line: gradient 5% acetonitrile 3 min, to 50% in 2 min, to 85% in 15 min, held 3 min, 100 µL/min. The following applies: column: Zorbax Extend-C18 2.1 x 50 mm; eluents: water / acetonitrile, 0.1% formic acid. The method in brief:
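A Zorbax Extend-C18 column (2.1 × 50 mm, 1.8 μm) run at 100 μL/min with water and acetonitrile, both containing 0.1% formic acid, separated mixtures of ~100 pure standards. The HPLC was coupled to a quadrupole time-of-flight mass spectrometer operated in positive and negative ionization mode, with dead and dwell volumes of 40 μL and 900 μL. Each retention time was taken from a computationally picked adduct peak that was then manually inspected.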
In turn, `CCCc1noc(-c2cccnc2N2CCCN(Cc3ccccc3)CC2)n1` displayed an RP-LC retention time of 690 s.
Under `NC(=O)c1nnsc1-c1ccc(-c2snnc2C(N)=O)cc1` stands 694 s; under `Cc1noc([C@@H]2CN(Cc3ccc(F)cc3Cl)C[C@H]2CO)n1`, 600 s.
With `Cc1ccc(C(=O)N2CCCC(c3nnc(-c4ccccc4)o3)C2)s1` (stereo not drawn), the RP-LC retention time was 861 s.
For `Cc1ccccc1NC(=O)Nc1c(-c2ccc(F)cc2)nc2ccccn12`, the RP-LC retention time worked out at 661 s.
As for `CCOC(=O)c1cc(S(=O)(=O)N2CCCC2C(=O)N2CCN(c3ccccn3)CC2)cn1C` (stereo not drawn), the RP-LC retention time came out at 600 s.
With `COc1ccc(C2=Nc3ccccc3N(CC(=O)Nc3ccc4c(c3)OCCO4)C(=O)C2)cc1` the figure was 913 s; with `CCc1cccc(NC(=O)N2CCc3nc(-c4ccccc4)ncc3C2)c1`, 901 s.
For `CC(C)Oc1ccc(-c2noc(CN3N=NC4C(=O)N(c5ccc(F)cc5)C(=O)C43)n2)cc1` (stereo not drawn), the RP-LC retention time stood at 1070 s.
`Cc1ccsc1C(=O)Nc1cccc(OCc2nnc(-c3ccc(F)cc3)o2)c1`: the RP-LC retention time came out at 981 s.
With `COc1ccc(-c2nc(CNC(=O)c3ccc(-c4noc(C5CC5)n4)cc3)no2)cc1` the figure was 952 s; with `CC1=NOC(C)(CNC(=O)NC(C)(C)C)C1` (stereo not drawn), 627 s; with `CCC[C@@H]1C[C@@H](C(=O)N[C@@H]([C@H]2O[C@H](SC)[C@@H](O)[C@@H](O)[C@H]2O)[C@@H](C)O)N(C)C1`, 584 s.
Under `O=C(Nc1cccnc1)c1c2c(nc3ccccc13)C(=O)N(C1CCCCC1)C2` stands 669 s; under `CCCCn1c(=O)c2ccccc2n(Cc2nc(-c3ccc(Cl)c(F)c3)no2)c1=O`, 1110 s.
With `COc1ccc(-c2nc(-c3cn(Cc4cccc(F)c4)nn3)no2)c(OC)c1` the figure was 934 s; with `COc1ccc(-c2nc3cc(C)ccn3c2NC(=O)COc2ccc(Cl)cc2)cc1OC`, 714 s; with `O=C(CSc1ccc(NC(=O)C2CC2)nn1)NCc1cccs1`, 652 s.
In turn, `CNC(=O)CSc1nnc(N2CCN(C(=O)c3cc(-c4ccccc4)on3)CC2)s1` yielded an RP-LC retention time of 674 s.
`CCOc1ccccc1OCC(=O)c1ccc(O)cc1O` gave an RP-LC retention time of 794 s.
For the compound `COc1cccc(NC(=O)N2CCC3(C2)C(=O)Nc2ccc(OC)cc23)c1` (stereo not drawn), the RP-LC retention time turned out to be 701 s.
`O=C(NCCn1nnc2cc(C(=O)N3CCCC3)ccc21)Nc1cccc(Br)c1` had an RP-LC retention time of 722 s.
On to `COC(=O)c1c(C)c(C(=O)C(C)N(CCC(C)C)C(=O)c2ccccc2Cl)c(C)n1C` (stereo not drawn), for which the RP-LC retention time is 1130 s.
As to `Cc1nc(C)c(-c2nnc(NC(=O)c3ccc(F)cc3F)o2)s1`, the RP-LC retention time was 663 s.
Under `COc1ccc(-n2ccnc(NC(=O)Nc3ccc(F)cc3)c2=O)cc1OC` stands 848 s; under `Cn1nc(C(=O)Nc2ccc3c(c2)C(=O)N2CCC[C@H]2C(=O)N3)c2ccccc21`, 714 s; under `C[C@@H]1C/C=C/C=C/C=C/C=C/[C@H](O[C@@H]2O[C@H](C)[C@@H](O)[C@H](N)[C@@H]2O)C[C@@H]2O[C@](O)(C[C@@H](O)C[C@H]3O[C@@H]3/C=C/C(=O)O1)C[C@H](O)[C@H]2C(=O)O`, 686 s.
The compound `CN(C)S(=O)(=O)c1ccc(-c2nnc(C(=O)NCC3CCCCC3)o2)cc1` showed an RP-LC retention time of 937 s.
For `Cc1ccccc1Cn1c(CN2CCC(C(=O)NCCC3=CCCCC3)CC2)cc2ccccc21`, the RP-LC retention time amounted to 928 s.
With `Cc1cc(OCC(=O)NCCn2nc(-c3cccnc3)ccc2=O)ccc1Cl` the figure was 617 s; with `O=C(O)c1cnc(NCCc2cccs2)nc1-c1ccccn1`, 765 s; with `Cc1ccc(N(C)S(=O)(=O)c2ccc(-c3c(C)noc3C)cc2)cc1`, 1060 s.
Under `CCc1nc(-c2csc(S(=O)(=O)N3CCC(C(=O)NC4CCCCCCC4)CC3)c2)no1` stands 1070 s; under `CCOc1cccc(-c2noc(Cn3c(=O)n(-c4cccc(C)c4)c(=O)c4sccc43)n2)c1`, 1060 s.
With `COc1ccc(NC(=O)N2CCN(C3=CC4=NCC(C)N4C=N3)CC2)cc1` (stereo not drawn) the figure was 599 s.
In the case of `COc1ccc(-c2nc(CN(c3ccccc3)S(=O)(=O)c3cccs3)c(C)o2)cc1OC`, the RP-LC retention time came out at 1040 s.
On to `COCCN1CC2(CCCC2)N(Cc2cc(C(F)(F)F)ccc2Cl)CC1=O`, for which the RP-LC retention time was found to be 1060 s.
On to `Cc1cc(C(=O)Nc2sc(C)c(C)c2C#N)on1`, for which the RP-LC retention time amounted to 786 s.
`O=C1CCC(=O)N1CCc1c[nH]c2ccc(OCc3ccccc3)cc12` returned an RP-LC retention time of 1030 s.
With `Cc1cc(Cl)ccc1NC(=O)N1CC(Cc2nc(-c3cnccn3)no2)C1` the figure was 754 s; with `COc1cccc(CN2C[C@@H](CO)[C@H](c3ccccn3)C2)c1OC`, 592 s.
With `O=C(Nc1ccccc1)N1CCCC(c2nnnn2-c2ccccc2)C1` (stereo not drawn) the figure was 820 s; with `O=C(Nc1ccccc1)N1CCC(N2CCN(Cc3cccc(F)c3)C(=O)C2=O)CC1`, 691 s; with `C#CCOCC1CCN(S(=O)(=O)c2ccccc2)CC1`, 866 s.
With `C[C@H](NC(=O)Cc1cc(F)cc(F)c1)C(=O)N[C@H](C(=O)OC(C)(C)C)c1ccccc1`, the RP-LC retention time came to 944 s.
With `Cc1nc(-c2ccncc2)nc2c1CCC(=O)N2Cc1cccnc1` the figure was 553 s; with `CC1CCN(c2ccc(CNc3nc4ccncc4n(C)c3=O)cc2)CC1`, 559 s.
With `Cc1ccccc1S(=O)(=O)NC1CCN(c2ccc(=O)n(C)n2)C1` (stereo not drawn) the figure was 705 s; with `O=C(Nc1nc(-c2ccccc2)cs1)c1ccc(COc2c(F)c(F)c(F)c(F)c2F)o1`, 1220 s.
The compound `Fc1ccc(-c2nc(-c3ccc4nncn4c3)no2)cc1F` displayed an RP-LC retention time of 822 s.
With `CN1CCc2nnc(C3CCCN3C(=O)Nc3ccc(Cl)cc3F)n2CC1` (stereo not drawn) the figure was 581 s; with `Cc1nc(C)c(C(=O)Nc2nc(-c3cccc(Cl)c3)c(C)s2)s1`, 1070 s.
With `O=C(c1ccccc1Cl)N1CCN(S(=O)(=O)c2cc3c4c(c2)CCC(=O)N4CCC3)CC1` the figure was 796 s; with `CCC(CC)NC(=O)C1Cn2cccc2C(=O)N1` (stereo not drawn), 629 s.
On to `COc1ccc(-c2cc3n(n2)CCCN(C(=O)c2cc4ccccc4[nH]2)C3)cc1`, for which the RP-LC retention time stood at 893 s.
Under `O=C(Cn1nc2n(c1=O)CCCCC2)NCc1ccccc1Br` stands 705 s; under `Cc1ccsc1C(=O)N1CCC2(CC1)NC(=O)N(Cc1ccc(Cl)cc1)C2=O`, 844 s; under `CCOc1ccc(-c2nc(Cc3noc(-c4ccccc4OC)n3)c(C)o2)cc1`, 1170 s.
As to `COc1ccc(-c2cn3c(CC(=O)Nc4cc(C)on4)csc3n2)cc1OC`, the RP-LC retention time was 664 s.
With `CCCNc1cc(N2CCC(CCC(=O)NCc3ccc(F)cc3)CC2)ncn1` the figure was 686 s; with `COc1ccc(CCC(=O)Nc2c(C(=O)N3CCN(c4ccccn4)CC3)oc3ccccc23)cc1`, 834 s; with `COc1ccc(-c2nnc3sc(-c4cc(C)on4)nn23)cc1`, 864 s.
In the case of `COC(=O)c1c(C)[nH]c(C(=O)N2CCCC(C(=O)N3CCCC3)C2)c1C` (stereo not drawn), the RP-LC retention time came to 663 s.
In the case of `Cc1ccnc(N2CCCC(C(=O)NCC3CCN(Cc4cccc(Cl)c4)CC3)C2)n1` (stereo not drawn), the RP-LC retention time was found to be 604 s.
`O=C(C1CC1)N1CCN(S(=O)(=O)c2cc(-c3noc(C4CCC4)n3)cs2)CC1` came in with an RP-LC retention time of 926 s.
Take `CC1SC(C)C(=O)N(CC(=O)NCCc2ccccc2)C1=O` (stereo not drawn): the RP-LC retention time came out at 764 s.
Under `N#Cc1ccc(C(=O)N2CCN(c3nc(CN4CCCCC4)cs3)CC2)cc1` stands 614 s; under `COc1ccc(CNC(=O)c2c(C)sc3ccn(C)c(=O)c23)cc1OC`, 674 s.
Turning to `O=C(Cc1cccs1)NC(Cc1ccccc1)c1nnc(N2CCCCC2)o1` (stereo not drawn), the RP-LC retention time was 843 s.
On to `Cc1cc(F)ccc1NC(=O)Cn1ccc2sccc2c1=O`, for which the RP-LC retention time was 726 s.
Under `CCOCC(=O)N(C)CCc1noc(-c2ccc(C(=O)N3CCCC3)cc2)n1` stands 648 s; under `COc1ccc(-c2nnc(-c3ccc(-n4ccnc4)nc3)o2)cc1F`, 642 s; under `CCCN(C(=O)c1ccco1)c1nc(-c2ccccc2)cs1`, 1250 s.
Under `O=C1NC(Cc2c[nH]c3ccccc23)C(=O)N1c1cccc(Cl)c1` (stereo not drawn) stands 790 s; under `O=C(c1ccc(Br)cc1)N1CCN(c2nnc3ccccn23)CC1`, 653 s.
With `Cc1ccc(Cn2c(C)c(CNCCc3ccco3)c(C(=O)O)c2C)cc1` the figure was 630 s.
`COc1ccc(-c2nsc(C(=O)NCc3cccs3)c2N)cc1` came in with an RP-LC retention time of 866 s.
Under `COC(=O)c1ccccc1NC(=O)CSc1nc(C)cc(N2CCOCC2)n1` stands 603 s.
